# Reference: ChEMBL document CHEMBL1921753, “Semisynthesis and biological evaluation of ganodermanontriol and its stereoisomeric triols” (J Nat Prod, 2011)
# pIC50: −log10 of the molar value.
# Tests used:
# Type in all cases: functional, cell-based
# MCF7 [1] = assay: Antiproliferative activity against human MCF7 cells after 24 to 72 hrs by MTT assay
# MDA-MB-231 [2] = assay: Antiproliferative activity against human MDA-MB-231 cells after 24 to 72 hrs by MTT assay
# MDA-MB-231 [3] = assay: Antiproliferative activity against human MDA-MB-231 cells after 72 hrs by MTT assay; conditions: MDA-MB-231, 72 h
# MCF7 [4] = assay: Antiproliferative activity against human MCF7 cells after 72 hrs by MTT assay; conditions: MCF7, 72 h
compound,measurement,setting,value
C[C@H](CC[C@H](O)[C@@](C)(O)CO)[C@H]1CC[C@@]2(C)C3=CC[C@H]4C(C)(C)C(=O)CC[C@]4(C)C3=CC[C@]12C,pIC50,MCF7 [1],4.79
same,pIC50,MDA-MB-231 [2],4.44
C[C@H](CC[C@H](O)[C@](C)(O)CO)[C@H]1CC[C@@]2(C)C3=CC[C@H]4C(C)(C)C(=O)CC[C@]4(C)C3=CC[C@]12C [GANODERMANONTRIOL],pIC50,MDA-MB-231 [3],5.01
same,pIC50,MCF7 [4],5.24
C[C@H](CC[C@@H](O)[C@@](C)(O)CO)[C@H]1CC[C@@]2(C)C3=CC[C@H]4C(C)(C)C(=O)CC[C@]4(C)C3=CC[C@]12C,pIC50,MCF7 [1],4.62
same,pIC50,MDA-MB-231 [2],4.47
C[C@H](CC[C@@H](O)[C@](C)(O)CO)[C@H]1CC[C@@]2(C)C3=CC[C@H]4C(C)(C)C(=O)CC[C@]4(C)C3=CC[C@]12C,pIC50,MCF7 [1],4.62
same,pIC50,MDA-MB-231 [2],4.95
